# Data from patent publication US20240252527A9, “NUCLEOSIDE DRUGS FOR THE TREATMENT OR PREVENTION OF CORONAVIRUS INFECTION AND THEIR USES” (Miracure Biotechnology Limited, priority 2022, published 2024).
# Where two headings read alike, the source gives them in different places.
# What was measured:
# [1] = test system: OC43; test: OC43 Huh7 CPE assay (cytopathic experiment); assay type: cell-based, coronavirus OC43 (HCoV-OC43); conditions: for EC50: read-out: OC43 Huh7 CPE assay (μM) EC50; for EC90: read-out: OC43 Huh7 CPE assay (μM) EC90
# Procedure: (§1) Cells were seeded into microplates at a certain density and cultured overnight in a incubator at 5% CO2, 37° C. The next day, double-diluted compound and virus were added. It was set up a cell control group (cells without treatment with a compound or virus infection), a virus control group (cells infected with virus, no compound treatment) and a culture medium control group (medium only). Cells were cultured in the incubator for 3 days (229E) or 7 days (OC43). Cytotoxicity experiments were performed under the same conditions as antiviral experiments, but without virus infection. Cell viability was tested using a cell viability assay kit Cell Titer Glo (Promega).
# (§2) The antiviral activity and cytotoxicity of the compounds were expressed by the inhibition rate (%) and cell viability (%) of the compounds against virus-induced cytopathic effects at different concentrations, respectively. Nonlinear fitting analysis on the inhibition rate and cell viability of the compounds were carried out with the GraphPad Prism, and the half effective concentration (EC50), the […] effective concentration (EC90), the half cytotoxic concentration (CC50) and the 90% cytotoxic concentration of the compound […] values were calculated.
# [2] = test system: 229E; test: 229E MRC5 CPE assay (cytopathic experiment); assay type: cell-based, coronavirus 229E (HCoV-229E)
# Procedure: as §1, §2
# [3] = Betacoronavirus 1, OC43, Huh-7, 168 h
# [4] = Human coronavirus 229E, MRC5, 72 h, read-out: 229E MRC5 CPE assay (μM) EC50
# [5] = Human coronavirus 229E, MRC5, 72 h, read-out: 229E MRC5 CPE assay (μM) EC90
# [6] = Human coronavirus 229E, MRC5, 72 h; read-out: 229E MRC5 CPE assay (μM) EC50
# [7] = Human coronavirus 229E, MRC5, 72 h; read-out: 229E MRC5 CPE assay (μM) EC90
# [8] = Betacoronavirus 1, Huh-7, 168 h, Huh7 cells, OC43 virus, 7 days, Cell Titer Glo
Compound,"EC50 [1, 3]","EC90 [1, 3]","EC50 [2, 4]","EC90 [2, 5]","EC50 [2, 6]","EC90 [2, 7]","EC50 [1, 8]","EC90 [1, 8]"
CCCC(CCC)C(=O)OCNc1ncnn2c([C@]3(C#N)O[C@H](COP(=O)(OCOC(=O)C(CCC)CCC)OCOC(=O)C(CCC)CCC)[C@@H](O)[C@H]3O)ccc12 [Compound 155],> 0.5 µM,> 0.5 µM,0.1 to 0.5 µM,> 0.5 µM,,,,
N#C[C@@]1(c2ccc3c(N)ncnn23)O[C@H](COP(=O)(OCOC(=O)OC2CCC2)OCOC(=O)OC2CCC2)[C@@H](O)[C@H]1O [Compound 276],0.1 to 0.5 µM,> 0.5 µM,0.1 to 0.5 µM,> 0.5 µM,,,,
N#C[C@@]1(c2ccc3c(N)ncnn23)O[C@@H]2CO[P@@](=O)(OCOC(=O)CCCc3ccccc3)O[C@H]2[C@H]1O [Compound 264],> 0.5 µM,> 0.5 µM,< 0.1 µM,0.1 to 0.5 µM,,,,
CCC(CC)COC(=O)[C@H](C)N[P@@](=O)(OCOC(=O)OC(C)C)OC[C@H]1O[C@@](C#N)(c2ccc3c(N)ncnn23)[C@H](O)[C@@H]1O [Compound 076],0.1 to 0.5 µM,0.1 to 0.5 µM,< 0.1 µM,0.1 to 0.5 µM,,,,
CCCN(CCC)S(=O)(=O)c1ccc(C(=O)OCO[P@](=O)(N[C@@H](C)C(=O)OCC(CC)CC)OC[C@H]2O[C@@](C#N)(c3ccc4c(N)ncnn34)[C@H](O)[C@@H]2O)cc1 [Compound 160],> 0.5 µM,> 0.5 µM,> 0.5 µM,> 0.5 µM,,,,
CCCC(CCC)C(=O)OCO[P@](=O)(OC[C@H]1O[C@@](C#N)(c2ccc3c(N)ncnn23)[C@H](O)[C@@H]1O)Oc1ccccc1 [Compound 223],> 0.5 µM,> 0.5 µM,,,0.1 to 0.5 µM,> 0.5 µM,,
CCCC(CCC)C(=O)OCO[P@@](=O)(OC[C@H]1O[C@@](C#N)(c2ccc3c(N)ncnn23)[C@H](O)[C@@H]1O)Oc1cccc2ccccc12 [Compound 224],> 0.5 µM,> 0.5 µM,,,> 0.5 µM,> 0.5 µM,,
CCCC(CCC)C(=O)O[C@@H]1[C@@H]2OP(=O)(O)OC[C@H]2O[C@@]1(C#N)c1ccc2c(N)ncnn12 [Compound 057],0.1 to 0.5 µM,> 0.5 µM,> 0.5 µM,> 0.5 µM,,,,
CCC(CC)COC(=O)[C@H](C)N[P@](=O)(OC[C@H]1O[C@@](C#N)(c2ccc3c(N)ncnn23)[C@H](O)[C@@H]1O)Oc1ccc(Nc2ccnc3cc(Cl)ccc23)cc1CN(CC)CC [Compound 062],,,,,> 0.5 µM,> 0.5 µM,> 0.5 µM,> 0.5 µM
CC(C)OC(=O)CO[P@]1(=S)OC[C@H]2O[C@@](C#N)(c3ccc4c(N)ncnn34)[C@H](O)[C@@H]2O1 [Compound 149],> 0.5 µM,> 0.5 µM,,,> 0.5 µM,> 0.5 µM,,
CCC(CC)COC(=O)[C@H](C)N[P@](=O)(OCCN(CC)CCCC(C)Nc1ccnc2cc(Cl)ccc12)OC[C@H]1O[C@@](C#N)(c2ccc3c(N)ncnn23)[C@H](O)[C@@H]1O (stereo partly shown) [Compound 069],> 0.5 µM,> 0.5 µM,> 0.5 µM,> 0.5 µM,,,,
CC(C)(C)C(=O)O[C@@H]1[C@@H]2O[P@](=O)(O)OC[C@H]2O[C@@]1(C#N)c1ccc2c(N)ncnn12 [Compound 200],> 0.5 µM,> 0.5 µM,> 0.5 µM,> 0.5 µM,,,,
"CCC(CC)COC(=O)[C@H](C)N[P@](=O)(OC[C@H]1O[C@@](C#N)(c2ccc3c(N)ncnn23)[C@H](O)[C@@H]1O)Oc1ccccc1 [Remdesivir, reference compound]",,,,,< 0.1 µM,0.1 to 0.5 µM,< 0.1 µM,< 0.1 µM
CCCC(CCC)C(=O)OCO[P@@](=O)(NC(C)(C)C(=O)OCC(CC)CC)OC[C@H]1O[C@@](C#N)(c2ccc3c(N)ncnn23)[C@H](O)[C@@H]1O [Compound 121],0.1 to 0.5 µM,> 0.5 µM,0.1 to 0.5 µM,0.1 to 0.5 µM,,,,
[2H]c1cc([C@]2(C#N)O[C@@H]3CO[P@@](=O)(OCC)O[C@H]3[C@H]2O)n2ncnc(N)c12 [Compound 233],,,,,> 0.5 µM,> 0.5 µM,> 0.5 µM,> 0.5 µM
CCC(CC)COC(=O)[C@H](C)NP(=O)(OC[C@H]1O[C@@](C#N)(c2ccc3c(N)ncnn23)[C@H](O)[C@@H]1O)Oc1ccc(N)cc1C(=O)O (stereo partly shown) [Compound 107],,,,,> 0.5 µM,> 0.5 µM,> 0.5 µM,> 0.5 µM
